ChEMBL document CHEMBL4414646, “Eutypellacytosporins A-D, Meroterpenoids from the Arctic Fungus Eutypella sp. D-1” (J Nat Prod, 2019)

Columns and labels:
Format in all cases: functional, cell-based
Huh-7 = test: Cytotoxicity against human HuH7 cells assessed as reduction in cell viability incubated for 72 hrs by CCK8 assay; settings: Huh-7, 72 h
PANC-1 = test: Cytotoxicity against human PANC1 cells assessed as reduction in cell viability incubated for 72 hrs by CCK8 assay; settings: PANC-1, 72 h
SW1990 = test: Cytotoxicity against human SW1990 cells assessed as reduction in cell viability incubated for 72 hrs by CCK8 assay; settings: SW1990, 72 h
DU-145 = test: Cytotoxicity against human DU145 cells assessed as reduction in cell viability incubated for 72 hrs by CCK8 assay; settings: DU-145, 72 h

Compound	IC50 (Huh-7)	IC50 (PANC-1)	IC50 (SW1990)	IC50 (DU-145)
C=C1[C@@H](OC(=O)C(C)(C)[C@H](C)O)C[C@H]2C[C@@H]1[C@]21C[C@@]2(C[C@H](C)C(=O)O2)O[C@H]1OCC1=C(/C=C/CCCCC)[C@@H](O)[C@@H]2O[C@@]23C[C@H](O)C(C)(C)O[C@@H]13	4.9 µM	7.9 µM	4.9 µM	11 µM
C=C1[C@@H](OC(=O)C(C)(C)[C@H](C)O)C[C@H]2C[C@@H]1[C@]21C[C@]2(C[C@H](C)C(=O)O2)O[C@H]1OCC1=C(/C=C/CCCCC)[C@@H](O)[C@@H]2O[C@@]23C[C@H](O)C(C)(C)O[C@@H]13	9.6 µM	7.5 µM	8.2 µM	13.4 µM
CCCCC/C=C/C1=C(CO)[C@@H]2OC(C)(C)[C@@H](O)C[C@@]23O[C@H]3[C@@H]1O	> 50 µM	> 50 µM	> 50 µM	> 50 µM
C=C1[C@@H](OC(=O)C(C)(C)[C@H](C)O)C[C@H]2C[C@@H]1[C@]21C[C@]2(C[C@H](C)C(=O)O2)O[C@@H]1OCC1=C(/C=C/CCCCC)[C@@H](O)[C@@H]2O[C@@]23C[C@H](O)C(C)(C)O[C@@H]13	11.2 µM	10.2 µM	9.6 µM	13.5 µM
C=C1[C@@H](OC(=O)C(C)(C)[C@H](C)O)C[C@H]2C[C@@H]1[C@]21C[C@@]2(C[C@H](C)C(=O)O2)O[C@@H]1OCC1=C(/C=C/CCCCC)[C@@H](O)[C@@H]2O[C@@]23C[C@H](O)C(C)(C)O[C@@H]13	8.4 µM	9.7 µM	7.3 µM	17.1 µM
